Data on 32 compounds can be found in patent publication US10968203B2, “Pyrimidinyl-pyridyloxy-naphthyl compounds and methods of treating IRE1-related diseases and disorders” (Genentech, Inc., priority 2017, dated 2021).

A word on the IC50: it is the concentration that inhibits the measured activity by half.

SMILES strings stand for the structures. Counter-ions that a name gives are not always drawn.

The subject of one experiment is XBP1s-luc 293 LUC. The experiment is described as follows: cellular PD assay, XBP1s-LUC reporter (Example 903). The format is cell-based. The settings on record: Table 1; read-out: XBP1s-luc 293 LUC (IC50). In outline: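 Cellular IRE1α pathway activity was quantified from the luciferase signal of an XBP1-Luc reporter, where the luciferase fusion is in frame and expressed only from the spliced XBP1 transcript.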
Consider `Cc1ccc2c(NS(=O)(=O)CC(C)C)cccc2c1Oc1ncccc1-c1ccnc(N[C@H]2CCCNC2)n1` [Example 121, (S)-2-Methyl-N-(6-methyl-5-((3-(2-(piperidin-3-ylamino)pyrimidin-4-yl)pyridin-2-yl)oxy)naphthalen-1-yl)propane-1-sulfonamide hydrochloride], for which the half-inhibitory concentration (IC50) stood at 103 nM.
Still for that read-out and setting: the figure for `Cc1nc(CNc2cccc3c(Oc4ncccc4-c4ccnc(N[C@@H]5CNC[C@H](C)C5)n4)c(C)ccc23)cs1` [Example 323, 4-(2-((2-Methyl-5-(((2-methylthiazol-4-yl)methyl)amino)naphthalen-1-yl)oxy)pyridin-3-yl)-N-((3S,5R)-5-methylpiperidin-3-yl)pyrimidin-2-amine] is 88.9 nM; for `Cc1ccc2c(NS(=O)(=O)CC(C)C)c(F)ccc2c1Oc1ncccc1-c1ccnc(N[C@@H]2CNC[C@@H](F)C2)n1` (single isomer, unassigned) [Example 208] it is 18.2 nM; for `Cc1ccc2c(NCC[C@@H]3CC3(F)F)cccc2c1Oc1ncccc1-c1ccnc(N[C@H]2CCCNC2)n1` (single isomer, unassigned) [Example 291] it is 361 nM.
Regarding `Cc1ccc2c(NC[C@H](O)C(F)(F)F)cccc2c1Oc1ncccc1-c1ccnc(N[C@H]2CCCNC2)n1` [Example 299], the IC50 is 8.58 nM.
For the compound `Cc1ccc2c(NS(=O)(=O)N(C)C)cccc2c1Oc1ncccc1-c1ccnc(N[C@H]2CCCNC2)n1` [Example 109, 4-[2-[[5-(Dimethylsulfamoylamino)-2-methyl-1-naphthyl]oxy]-3-pyridyl]-2-[[(3S)-3-piperidyl]amino]pyrimidine hydrochloride], the half-maximal inhibitory concentration (IC50) was 222 nM.
As for `Cc1ccc2c(NS(=O)(=O)Cc3ccccc3Cl)c(F)ccc2c1Oc1ncccc1-c1ccnc(N[C@H]2CCCNC2)n1` [Example 102, (S)-1-(2-Chlorophenyl)-N-(2-fluoro-6-methyl-5-((3-(2-(piperidin-3-ylamino)pyrimidin-4-yl)pyridin-2-yl)oxy)naphthalen-1-yl)methanesulfonamide], the IC50 is 4.6 nM.
On the same count and under the same terms, the figure for `Cc1nc(CNc2c(F)ccc3c(Oc4ncccc4-c4ccnc(N[C@@H]5CNC[C@H](C)C5)n4)c(C)ccc23)cs1` [Example 307, 4-(2-((6-Fluoro-2-methyl-5-(((2-methylthiazol-4-yl)methyl)amino)naphthalen-1-yl)oxy)pyridin-3-yl)-N-((3S,5R)-5-methylpiperidin-3-yl)pyrimidin-2-amine] is 360 nM; for `Cc1ccc2c(NS(=O)(=O)CC3CCC3)cccc2c1Oc1ncccc1-c1ccnc(N[C@H]2CCCNC2)n1` [Example 127, (S)-1-Cyclobutyl-N-(6-methyl-5-((3-(2-(piperidin-3-ylamino)pyrimidin-4-yl)pyridin-2-yl)oxy)naphthalen-1-yl)methanesulfonamide] it is 233 nM; for `CCCS(=O)(=O)Nc1cccc2c(Oc3ncc(C)cc3-c3ccnc(N[C@H]4CCCNC4)n3)c(C)ccc12` [Example 240, (S)—N-(6-Methyl-5-((5-methyl-3-(2-(piperidin-3-ylamino)pyrimidin-4-yl)pyridin-2-yl)oxy)naphthalen-1-yl)propane-1-sulfonamide] it is 167 nM.
Same read-out and setting: for `Cc1ccc2c(N3CC[C@H](C)C3=O)cccc2c1Oc1ncccc1-c1ccnc(N[C@H]2CCCNC2)n1` (single isomer, unassigned) [Example 257] the value was 264 nM; for `Cc1ccc2c(Nc3ccn(C)n3)c(F)ccc2c1Oc1ncccc1-c1ccnc(N[C@H]2CCCNC2)n1` [Example 359, (S)-4-(2-((6-Fluoro-2-methyl-5-((1-methyl-1H-pyrazol-3-yl)amino)naphthalen-1-yl)oxy)pyridin-3-yl)-N-(piperidin-3-yl)pyrimidin-2-amine], 438 nM.
For `Cc1ccc2c(Oc3ncccc3-c3ccnc(N[C@H]4CCCNC4)n3)c(C)ccc2c1NS(=O)(=O)CCC(F)(F)F` [Example 318, (S)—N-(2,6-Dimethyl-5-((3-(2-(piperidin-3-ylamino)pyrimidin-4-yl)pyridin-2-yl)oxy)naphthalen-1-yl)-3,3,3-trifluoropropane-1-sulfonamide], the IC50 was 41.7 nM.
On the same count and under the same terms, for `Cc1ccc2c(NC(=O)CC3CC4CCC3C4)cccc2c1Oc1ncccc1-c1ccnc(N[C@H]2CCCNC2)n1` (stereo partly drawn) [Example 286, 2-(Bicyclo[2.2.1]heptan-2-yl)-N-(6-methyl-5-((3-(2-((S)-piperidin-3-ylamino)pyrimidin-4-yl)pyridin-2-yl)oxy)naphthalen-1-yl)acetamide] the value was 174 nM; for `Cc1ccc2c(N3CCCC3=O)c(F)ccc2c1Oc1ncccc1-c1ccnc(N[C@H]2CCCNC2)n1` [Example 335, (S)-1-(2-Fluoro-6-methyl-5-((3-(2-(piperidin-3-ylamino)pyrimidin-4-yl)pyridin-2-yl)oxy)naphthalen-1-yl)pyrrolidin-2-one], 384 nM; for `CCCS(=O)(=O)Nc1cccc2c(Oc3ncccc3-c3ccnc(N[C@@H]4CNCC[C@H]4F)n3)c(C)ccc12` (single isomer, unassigned) [Example 206], 487 nM.
On the same count and under the same terms, the figure for `COC(C)CS(=O)(=O)Nc1cccc2c(Oc3ncccc3-c3ccnc(N[C@H]4CCCNC4)n3)c(C)ccc12` (stereo partly drawn) [Example 138, 2-Methoxy-N-(6-methyl-5-((3-(2-((S)-piperidin-3-ylamino)pyrimidin-4-yl)pyridin-2-yl)oxy)naphthalen-1-yl)propane-1-sulfonamide] is 388 nM; for `Cc1ccc2c(NCC(C)C)cccc2c1Oc1ncccc1-c1ccnc(N[C@H]2CCCNC2)n1` [Example 349, (S)-4-(2-((5-(Isobutylamino)-2-methylnaphthalen-1-yl)oxy)pyridin-3-yl)-N-(piperidin-3-yl)pyrimidin-2-amine] it is 432 nM.
Take `Cc1ccc2c(NS(=O)(=O)CCl)cccc2c1Oc1ncccc1-c1ccnc(N[C@H]2CCCNC2)n1` [Example 151, (S)-1-Chloro-N-(6-methyl-5-((3-(2-(piperidin-3-ylamino)pyrimidin-4-yl)pyridin-2-yl)oxy)naphthalen-1-yl)methanesulfonamide]: the IC50 amounted to 140 nM.
Still for that read-out and setting: the figure for `Cc1ccc2c(NC(=O)c3ccc4ccccc4c3)cccc2c1Oc1ncccc1-c1ccnc(N[C@H]2CCCNC2)n1` [Example 174, (S)—N-(6-Methyl-5-((3-(2-(piperidin-3-ylamino)pyrimidin-4-yl)pyridin-2-yl)oxy)naphthalen-1-yl)-2-naphthamide] is 278 nM; for `Cc1ccc2c(NS(=O)(=O)Cc3cccc(Cl)c3)cccc2c1Oc1ncccc1-c1ccnc(N[C@H]2CCCNC2)n1` [Example 144, (S)-1-(3-Chlorophenyl)-N-(6-methyl-5-((3-(2-(piperidin-3-ylamino)pyrimidin-4-yl)pyridin-2-yl)oxy)naphthalen-1-yl)methanesulfonamide] it is 25 nM; for `Cc1ccc2c(NC[C@@H]3CC3(F)F)cccc2c1Oc1ncccc1-c1ccnc(N[C@H]2CCCNC2)n1` (single isomer, unassigned) [Example 343] it is 181 nM.

The experiment is the same for the next values; noted with them: Table 2; read-out: XBP1s-luc 293 LUC (IC50).
Regarding `Cc1ccc2c(NCC(F)CF)cccc2c1Oc1ncccc1-c1ccnc(N[C@H]2CCCNC2)n1` (mixture of isomers) [Example 460, 4-[2-[[5-(2,3-Difluoropropylamino)-2-methyl-1-naphthyl]oxy]-3-pyridyl]-N-[(3S)-3-piperidyl]pyrimidin-2-amine hydrochloride], the concentration for half-maximal inhibition (IC50) was 92 nM.
On the same count and under the same terms, the figure for `Cc1ccc2c(NC(=O)CC(O)C(F)(F)F)cccc2c1Oc1ncccc1-c1ccnc(N[C@H]2CCCNC2)n1` (single isomer, unassigned) [Example 435] is 338 nM; for `Cc1ccc2c(NS(=O)(=O)CCC(C)(F)F)c(F)ccc2c1Oc1ncccc1-c1ccnc(N[C@H]2CNC[C@H](F)C2)n1` (single isomer, unassigned) [Example 497, hydrochloride] it is 5100 nM.
For the compound `Cc1nc(CS(=O)(=O)Nc2c(F)ccc3c(Oc4ncccc4-c4ccnc(N[C@H]5CNC[C@H](F)C5)n4)c(C)ccc23)cs1` (single isomer, unassigned) [Example 491, hydrochloride], the IC50 was 117 nM.
Same read-out and setting: for `Cc1ccc2c(NS(=O)(=O)Cc3noc4ccccc34)c(F)ccc2c1Oc1ncccc1-c1ccnc(N[C@H]2CCCNC2)n1` [Example 443, (S)-1-(Benzo[d]isoxazol-3-yl)-N-(2-fluoro-6-methyl-5-((3-(2-(piperidin-3-ylamino)pyrimidin-4-yl)pyridin-2-yl)oxy)naphthalen-1-yl)methanesulfonamide hydrochloride] the value was 8 nM; for `Cc1ccc2c(NS(=O)(=O)Cc3ccccc3C#N)c(F)ccc2c1Oc1ncccc1-c1ccnc(N[C@H]2CCCNC2)n1` [Example 434, (S)-1-(2-Cyanophenyl)-N-(2-fluoro-6-methyl-5-((3-(2-(piperidin-3-ylamino)pyrimidin-4-yl)pyridin-2-yl)oxy)naphthalen-1-yl)methanesulfonamide hydrochloride], 6 nM.
On the same count and under the same terms, for `Cc1ccc2c(NS(=O)(=O)CCC(C)(F)F)c(F)ccc2c1Oc1ncccc1-c1ccnc(N[C@@H]2CNC[C@@H](F)C2)n1` (single isomer, unassigned) [Example 498, hydrochloride] the value was 33 nM; for `CCC(F)(F)CS(=O)(=O)Nc1c(F)ccc2c(Oc3ncccc3-c3ccnc(N[C@H]4CCCNC4)n3)c(C)ccc12` [Example 456, (S)-2,2-Difluoro-N-(2-fluoro-6-methyl-5-((3-(2-(piperidin-3-ylamino)pyrimidin-4-yl)pyridin-2-yl)oxy)naphthalen-1-yl)butane-1-sulfonamide hydrochloride], 11 nM; for `CCN(C)S(=O)(=O)Nc1c(F)ccc2c(Oc3ncccc3-c3ccnc(N[C@H]4CCCNC4)n3)c(C)ccc12` [Example 421, 4-[2-[[5-[[Ethyl(methyl)sulfamoyl]amino]-6-fluoro-2-methyl-1-naphthyl]oxy]-3-pyridyl]-2-[[(3S)-3-piperidyl]amino]pyrimidine hydrochloride], 44 nM.
The same measure, in the same setting: the figure for `Cc1ccc2c(NC[C@H](O)C3CC3)cccc2c1Oc1ncccc1-c1ccnc(N[C@H]2CCCNC2)n1` (single isomer, unassigned) [Example 489, hydrochloride] is 132 nM.
